Earlier results on one compound are cited in US8808722B2, “Stable antiseptic compositions and methods” (3M Innovative Properties Company, priority 2010, dated 2014).

The conditions of this series: at 25° C.

As to `II` [elemental iodine, iodine], the solubility in water is on record as 0.03 wt-%.
